Laboratory results taken from ChEMBL document CHEMBL1159162, “Conformationally constrained analogues of diacylglycerol (DAG). 3. Interaction of -alkyl--lactones with protein kinase C (PK-C)” (Bioorg Med Chem Lett, 1993).

Biological target: not listed separately
Assay: (§1) Inhibition of [20-3H]phorbol-12,13-dibutyrate (PDBU) binding to protein kinase-C (PKC alpha, beta and gamma) from mouse brain

| Compound | Ki [nM] |
| --- | --- |
| CCCCCCCCCCCCCC(=O)O[C@H]1CC(=O)O[C@@H]1CO | 5300 |
| CCCCCCCCCCCCCC[C@H]1C(=O)O[C@@H](CO)[C@@H]1OC(C)=O | 600 |
| CCCCCCCCCCCCCC(=O)OC[C@H](CO)OC(C)=O | 500 |
| CCCCCCCCCCCCCC(=O)O[C@H]1[C@H](CO)OC(=O)[C@@H]1CCCCCCCCCCCC | 2900 |

Further lines, results first:

| Ki [nM] | Compound |
| --- | --- |
| 2500 | CCCCCCCCCCCCCC(=O)O[C@@H]1CC(=O)O[C@H]1CO |
| 1100 | CCCCCCCCCCCC[C@H]1C(=O)O[C@@H](CO)[C@@H]1OC(C)=O |

Species: Mus musculus
Assay: as §1

| ED50 [nM] | Compound |
| --- | --- |
| > 200000 | CCCCCCCCCCCCCC(=O)O[C@H]1C(CCCCCCCCCCCC)C(=O)O[C@@H]1CO (stereo partly drawn) |
| > 100000 | CCCCCCCCCCCCC1C(=O)O[C@H](CO)[C@H]1OC(C)=O (stereo partly drawn) |
